Results taken from patent US8748601B2, “Selective serine/threonine kinase inhibitors” (The Regents of the University of California, priority 2003, dated 2014).

Assays:
Rsk [1] = test: Inhibition of RSK by fmk-pa (click chemistry, PMA-stimulated HEK-293 cells); assay type: cell-based; settings: FIG. 9
Method: Click reactions were performed as previously described by Speers et al., “Profiling enzyme activities in vivo using click chemistry methods”. Chem Biol 11, 535-46 (2004). Briefly, RSK2 CTD (30 nM) pretreated with the indicated concentrations of fmk-pa, or lysates from fmk-pa-pretreated cells were incubated with TAMRA-N3 or biotin-N3 ([…]), TCEP (1 mM), CuSO4 (1 mM), and TBAT ([…]) in PBS [pH 7.4] containing 1% SDS for 1 h at room temperature.
(§1) Confluent HEK-293 cells in 12-well plates were deprived of serum for 2 h and subsequently treated with the indicated concentrations of inhibitors for 1 h at 37° C. After stimulation with PMA ([…]) for 30 min, cells were washed with cold PBS and harvested in either PBS lysis buffer (FIG. 9c) or hypertonic lysis buffer (FIG. 10). Click chemistry was performed with TAMRA-N3 in lysates from cells treated with fmk-pa. Proteins were analyzed by in-gel fluorescence scanning or Western blotting.
RSK2 CTD was treated with the indicated concentrations of fmk-pa for 1 h followed by […] fmk-BODIPY for 1 h. After click conjugation with TAMRA-N3 (see Methods), proteins were resolved by 10% SDS-PAGE and detected by sequential in-gel fluorescence scanning using filters specific for TAMRA and BODIPY. […] Proteins were resolved by 10% SDS-PAGE and detected by in-gel fluorescence scanning (left) and Coomassie blue staining (right).

RSK [2] = test: RSK modification by fmk-pa in primary mouse macrophages (click chemistry); assay type: cell-based; settings: pretreated for 1 h, LPS-stimulated
Method: Confluent macrophages in 12-well plates were incubated in DMEM supplemented with 20 mM Hepes [pH 7.4] and 0.5% FBS for […] prior to treatment with the indicated concentrations of fmk-pa for 1 h at 37° C. After stimulation with either PMA ([…]) or LPS ([…]) for 30 min, cells were washed with cold PBS and harvested in PBS lysis buffer. Click chemistry was performed with TAMRA-N3 and proteins were subsequently analyzed by in-gel fluorescence scanning or Western blotting.
FIG. 11. Fmk-pa and click chemistry reveal the existence of a CTD-independent pathway for RSK Ser386 phosphorylation. […] Macrophages were cultured in 0.5% serum for 20 h and subsequently treated with the indicated concentrations of fmk-pa for 1 h. Cells were stimulated with either PMA (100 ng/mL) or LPS (1 mg/mL) for 30 min and harvested in PBS. Proteins were resolved by 10% SDS-PAGE and detected by Western blotting with antibodies to phospho-Ser386 RSK and total RSK2. […] Data represent mean±s.e.m. from 3 independent experiments. […] Proteins were resolved by 10% SDS-PAGE and detected by in-gel fluorescence scanning. […] Eluted proteins were resolved by 10% SDS-PAGE and detected by Western blotting with streptavidin-HRP or antibodies to RSK1, RSK2, and phospho-Ser386 RSK.

[3] = tested on: rpS6 Ser235/236 phosphorylation; test: PMA-stimulated rpS6 Ser235/236 phosphorylation in HEK-293 cells; assay type: cell-based; settings: 300 nM fmk-pa together with rapamycin, HEK-293, PMA
Method: as §1
Serum-starved HEK-293 cells were treated with the indicated concentrations of rapamycin in the absence (left lanes) or presence (right lanes) of 300 nM fmk-pa for 1 h and stimulated with PMA (100 ng/mL) for 30 min. Proteins were resolved by 10% SDS-PAGE and detected by Western blotting with antibodies to phospho-Ser235/236 rpS6, phospho-Ser386 RSK, and total RSK2. […] Percent rpS6 Ser235/236 phosphorylation was determined by quantification of Western blots (e.g., FIG. 3a) relative to DMSO controls using ImageJ. Data represent mean±s.e.m. from 3 independent experiments.

Rsk2 CTD = target: T1, Rsk2 CTD (Homo sapiens, UniProt P51812); test: Rsk2 CTD in vitro kinase assay, wild type; assay type: biochemical; settings: read-out: IC50 for RSK2
T1 construct: We tested the halomethylketones against the Rsk2 CTD by adapting an in vitro kinase assay; made in house
T1 sequence (P51812 422-679 limits assumed): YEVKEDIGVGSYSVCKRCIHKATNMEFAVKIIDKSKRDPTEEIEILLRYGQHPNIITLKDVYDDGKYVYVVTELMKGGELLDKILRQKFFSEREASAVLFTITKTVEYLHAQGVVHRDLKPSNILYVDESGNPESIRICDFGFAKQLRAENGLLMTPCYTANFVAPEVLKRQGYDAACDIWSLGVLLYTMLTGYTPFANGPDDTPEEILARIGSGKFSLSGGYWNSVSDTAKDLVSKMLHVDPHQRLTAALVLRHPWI
From the text: We tested the halomethylketones against the Rsk2 CTD by adapting an in vitro kinase assay developed by Chrestensen and Sturgill, J, Biol. Chem. 277:27733 (2002).

## C#CCNCCCn1c(C(=O)CF)c(-c2ccc(C)cc2)c2c(N)ncnc21 [propargylamine-fmk 18]
Rsk [1]
  Inhibition of RSK: irreversible, selective, and potent inhibition
RSK [2]
  RSK modification in intact macrophages: saturable RSK modification
[3]
  Inhibition of rpS6 phosphorylation: additive inhibition
Rsk2 CTD
  IC50: < 1000 nM
